Results taken from US20040241720A1, “Sodium activated potassium ion channel for therapeutic drug screening” (priority 2003, published 2004).

Biological target: T1, rSlo2 channels (Rattus norvegicus, UniProt Q9Z258)
T1 construct: expressed in transfected cells; host or cells: Xenopus laevis oocytes injected with capped cRNA (pOX vector); inside-out patches
T1 sequence (Q9Z258 1-1239): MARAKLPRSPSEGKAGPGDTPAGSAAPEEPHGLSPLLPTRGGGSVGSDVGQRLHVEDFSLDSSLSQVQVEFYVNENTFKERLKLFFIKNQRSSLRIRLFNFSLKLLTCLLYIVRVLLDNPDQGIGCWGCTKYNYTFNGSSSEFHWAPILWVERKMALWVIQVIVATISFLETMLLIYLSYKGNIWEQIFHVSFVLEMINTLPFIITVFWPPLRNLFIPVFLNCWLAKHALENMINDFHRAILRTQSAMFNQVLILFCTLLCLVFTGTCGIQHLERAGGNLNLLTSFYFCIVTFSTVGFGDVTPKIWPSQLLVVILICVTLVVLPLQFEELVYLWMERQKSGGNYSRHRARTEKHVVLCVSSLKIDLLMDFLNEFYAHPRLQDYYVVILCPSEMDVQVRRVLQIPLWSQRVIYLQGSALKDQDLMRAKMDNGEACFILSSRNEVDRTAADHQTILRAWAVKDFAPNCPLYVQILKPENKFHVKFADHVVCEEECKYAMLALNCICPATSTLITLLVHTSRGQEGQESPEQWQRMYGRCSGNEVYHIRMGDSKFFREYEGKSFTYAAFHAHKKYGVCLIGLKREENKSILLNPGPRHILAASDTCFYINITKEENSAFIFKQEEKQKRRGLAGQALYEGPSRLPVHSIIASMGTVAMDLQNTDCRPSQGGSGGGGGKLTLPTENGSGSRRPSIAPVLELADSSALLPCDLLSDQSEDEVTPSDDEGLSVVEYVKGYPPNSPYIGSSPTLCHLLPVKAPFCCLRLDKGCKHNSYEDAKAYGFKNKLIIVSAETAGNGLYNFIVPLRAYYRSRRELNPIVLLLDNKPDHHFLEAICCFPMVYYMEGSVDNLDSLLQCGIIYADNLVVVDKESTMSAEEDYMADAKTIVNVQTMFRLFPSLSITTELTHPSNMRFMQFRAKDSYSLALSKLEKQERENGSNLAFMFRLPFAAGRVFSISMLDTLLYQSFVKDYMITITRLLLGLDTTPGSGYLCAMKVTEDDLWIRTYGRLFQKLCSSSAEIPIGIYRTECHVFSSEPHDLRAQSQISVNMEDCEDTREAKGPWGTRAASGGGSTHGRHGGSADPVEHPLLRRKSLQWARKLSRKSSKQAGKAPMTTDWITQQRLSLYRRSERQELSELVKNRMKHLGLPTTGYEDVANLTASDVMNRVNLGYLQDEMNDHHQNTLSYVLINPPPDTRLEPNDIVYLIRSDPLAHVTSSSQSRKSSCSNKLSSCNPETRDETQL
Experiment: Patch clamp of inside-out patches from Xenopus oocytes injected with rSlo2 cRNA
Type: cell-based
Description: FIG. 2a depicts current traces from an inside-out macropatch (2-3 MΩ electrode prior to seal formation) in the presence of 50 mM [Na+], FIG. 2a (i) and in the absence of [Na^+]i FIG. 2a (ii). Voltage steps (−70 mV to +70 mV) were applied in 10 mV increments from a holding potential of −70 mV. The calculated potassium equilibrium potential was −78 mV in these experiments. FIG. 2a (iii) The current-voltage relationship of the mean current obtained from 7 macropatches with a holding potential of −80 mV, and voltage steps from −80 to +80 mV in 10 mV increments FIG. 2a (iv) Plot of normalized IKNa obtained upon perfusion of inside-out patches with different Na^+ concentrations as indicated.
FIG. 2c depicts a current trace of an uninjected oocyte. […] For the macropatch experiments the pipette solution contained (in mM) 145 Na^+-gluconate, 5 KCI, 5 Ca^2+-gluconate, 3 Mg^2+-gluconate, 11 dextrose, 5 HEPES, pH 7.4 with NaOH. The bath solution contained (in mM): 110 KCI, 50 NaCI and 5 HEPES, pH 7.3 with KOH. NaCI was replaced by choline-Cl for the dose-response curve. In single channel experiments, the pipette solution contained (in mM) 80 K^+-gluconate, […], 5 HEPES, 2 MgCI2, pH 7.2 with KOH. The bath solution contained (in mM) 80 KCI, 80 NaCI or 80 cholineCl, 5 HEPES, 5 EGTA, pH 7.2 with KOH.
FIG. 5a (iii) depicts the current-voltage relationship of the mean current between 700-800 ms. The pipette solution contained (in mM) 80 K^+-gluconate, 80 Na^+-gluconate, 5 HEPES, 2 MgCI2, pH 7.2 with KOH. The bath solution contained (in mM) 80 KCI or 80 K^+-gluconate, 20 NaCI and 60 choline-Cl or 20 Na^+-gluconate and 120 dextrose, 5 HEPES, 5 EGTA, pH 7.2 with KOH. (b) (i) Dose response relationship for [Na+]i at 160 mM [CI]i or 10 mM [CI]i,. (ii) Dose response relationship for [CI]i at 80 mM [Na^+]i or 20 mM [Na^+]i. Currents for the dose response curves were measured and averaged over a 1 second interval at −60 mV and each patch was normalized to the current elicited in 80 mM [Na^+]i, and 160 mM [CI]i. Each experiment was completed within 120 seconds to minimize rundown and was perfused in order of decreasing [Na^+]i or [CI]i.
The single electrode patch clamp system was first used to analyze inside-out patches, and to investigate the properties of rSlo2 in the Xencpus oocyte expression system by transcribing cRNA and injecting it into oocytes.
To obtain efficient expression of rhSlo2.2 in Xencpus oocytes, the original rhSlo2.2 construct was cloned into pOX, a special vector optimized for oocyte expression. Capped cRNA was synthesized using the T3 mMessage mMachine kit (Ambion). rhSlo2.2 was linearized using NotI. Reactions were resuspended in nuclease-free water to a final concentration of 1.5 μg/μl. Oocytes were harvested from adult female Xenopus iaevis as described. Defolliculated oocytes were injected with approximately 75 ng of cRNA using a Drummond Nanojector. Injected oocytes were incubated at 19° C. in ND96 medium (in mM): 96 NaCl, 2 KCI, 1.8 CaCl2, 1 MgCl2, 5 HEPES, pH 7.5 with NaOH. Oocytes were analyzed 2-3 days after injection for single channel analysis or 3-6 days after injection for macroscopic current analysis.
Prior to recording, the vitelline membranes were mechanically removed. The contents of solutions used are described in the figure legends. […] Data were analyzed using pClamp 8.2 (Axon Instruments) and Sigmaplot 5 (Jandel Scientific) or Origin 5.0 (Microcal).

Structure (SMILES): [Ca+2] [Ca^2+i]
- single channel activity (about 100 μM Ca^2+i, in the absence of Na^+i (data not shown)): inhibited
- channel activity (presence of about 80 μM ~200 μM Ca^2+i (data not shown)): no effect

Structure (SMILES): Cl [Cl^−]
- current as fraction of I max (55 mM Cl^−, 20 mM sodium ions, estimated from dose response plot): approximately 0.18 of I max
- activation of rSlo2 by Cl^−i (seen only when Na^+i is also present): activated

Structure (SMILES): [Na+] [Na^+]
- increase of amplitude of macroscopic current in patches (sodium concentration at cytoplasmic side increased from 10 to 50 mM, inside-out patch): more than ten times
